Species: Rattus norvegicus
Experiment: DrugMatrix - Regimen: Daily Repeat
Format: toxicity, organism-based, Sprague-Dawley
Design: regimen Daily Repeat, gender Male, age 6-8 weeks
Details: in vivo, iv, vehicle 100 % SALINE; for ABSOLUTE BASOPHIL / ABSOLUTE EOSINOPHIL / ABSOLUTE LYMPHOCYTE / ABSOLUTE MONOCYTE / ABSOLUTE SEGMENTED NEUTROPHIL / BASOPHIL / EOSINOPHIL / ERYTHROCYTE COUNT / HEMATOCRIT / HEMOGLOBIN / LEUKOCYTE COUNT / LYMPHOCYTE / MEAN CORPUSCULAR HEMOGLOBIN / MEAN CORPUSCULAR HEMOGLOBIN CONCENTRATION / MEAN CORPUSCULAR VOLUME / MONOCYTE / NEUTROPHIL / NUCLEATED RED BLOOD CELLS / PLATELET COUNT: tissue Blood; for ALANINE AMINOTRANSFERASE / ALBUMIN / ALKALINE PHOSPHATASE / ASPARTATE AMINOTRANSFERASE / BLOOD UREA NITROGEN / CARBON DIOXIDE / CHLORIDE / CHOLESTEROL / CREATINE PHOSPHOKINASE / CREATININE / GLUCOSE / LACTATE DEHYDROGENASE / LIPASE / PHOSPHORUS / POTASSIUM / SODIUM / TOTAL BILIRUBIN / TOTAL PROTEIN / URIC ACID: tissue Plasma
[1] = 12 mg/kg, 120 h, dose level High, time 5 day
[2] = […], 72 h, dose 1.2 mg/Kg, dose level Low, time 3 day
[3] = […], 120 h, dose 1.2 mg/Kg, dose level Low, time 5 day

`Cc1c(N)nc([C@H](CC(N)=O)NC[C@H](N)C(N)=O)nc1C(=O)N[C@H](C(=O)N[C@H](C)[C@@H](O)[C@H](C)C(=O)N[C@H](C(=O)NCCc1nc(-c2nc(C(=O)NCCC[S+](C)C)cs2)cs1)[C@@H](C)O)[C@@H](O[C@@H]1O[C@@H](CO)[C@@H](O)[C@H](O)[C@@H]1O[C@H]1O[C@H](CO)[C@@H](O)[C@H](OC(N)=O)[C@@H]1O)c1c[nH]cn1.[Br-]` [BLEOMYCIN A2] was tested, and the “ABSOLUTE BASOPHIL” value [1] was 0 CELLS/uL, the “ABSOLUTE EOSINOPHIL” value [1] was 50 CELLS/uL and the “ABSOLUTE LYMPHOCYTE” value [1] was 10142.67 CELLS/uL. For the same molecule, the “ABSOLUTE MONOCYTE” value [1] was 392.67 CELLS/uL, the “ABSOLUTE SEGMENTED NEUTROPHIL” value [1] was 1914.67 CELLS/uL and the BASOPHIL [1] was 0%. For the same molecule, the EOSINOPHIL [1] was 0.33%, the “ERYTHROCYTE COUNT” value [1] was 6.36 x10E6/uL and the HEMATOCRIT [1] was 38.97%. For the same molecule, the HEMOGLOBIN [1] was 15.17 G/DL, the “LEUKOCYTE COUNT” value [1] was 12.5 x10E3/uL and the LYMPHOCYTE [1] was 80%. The “MEAN CORPUSCULAR HEMOGLOBIN” value [1] was 23.87 pg, the “MEAN CORPUSCULAR HEMOGLOBIN CONCENTRATION” value [1] was 38.93 G/DL and the “MEAN CORPUSCULAR VOLUME” value [1] was 61.27 fL. For the same molecule, the MONOCYTE [1] was 3.33%, the NEUTROPHIL [1] was 16.33% and the “NUCLEATED RED BLOOD CELLS” value [1] was 0.33 /100WBC. The “PLATELET COUNT” value [1] was 1342 x10E3/uL, the “ALANINE AMINOTRANSFERASE” value [1] was 41.67 u/L and the ALBUMIN [1] was 3.83 G/DL. The “ALKALINE PHOSPHATASE” value [1] was 202.67 u/L, the “ASPARTATE AMINOTRANSFERASE” value [1] was 100.67 u/L and the “BLOOD UREA NITROGEN” value [1] was 16.67 mg/dL. For the same molecule, the “CARBON DIOXIDE” value [1] was 29 mmol/L, the CHLORIDE [1] was 101 MEQ/L and the CHOLESTEROL [1] was 54.33 mg/dL. For the same molecule, the “CREATINE PHOSPHOKINASE” value [1] was 1017.67 u/L, the CREATININE [1] was 0.13 mg/dL and the GLUCOSE [1] was 145.67 mg/dL. For the same molecule, the “LACTATE DEHYDROGENASE” value [1] was 563.33 u/L, the LIPASE [1] was 10 u/L and the PHOSPHORUS [1] was 10.83 mg/dL. The POTASSIUM [1] was 6.11 MEQ/L, the SODIUM [1] was 142.27 MEQ/L and the “TOTAL BILIRUBIN” value [1] was 0.1 mg/dL. The “TOTAL PROTEIN” value [1] was 6 G/DL, the “URIC ACID” value [1] was 1.3 mg/dL and the “ABSOLUTE BASOPHIL” value [2] was 0 CELLS/uL. The “ABSOLUTE EOSINOPHIL” value [2] was 212 CELLS/uL, the “ABSOLUTE LYMPHOCYTE” value [2] was 11289 CELLS/uL and the “ABSOLUTE MONOCYTE” value [2] was 312.33 CELLS/uL. For the same molecule, the “ABSOLUTE SEGMENTED NEUTROPHIL” value [2] was 1786.67 CELLS/uL, the BASOPHIL [2] was 0% and the EOSINOPHIL [2] was 1.67%. The “ERYTHROCYTE COUNT” value [2] was 5.13 x10E6/uL, the HEMATOCRIT [2] was 35.1% and the HEMOGLOBIN [2] was 13.93 G/DL. The “LEUKOCYTE COUNT” value [2] was 13.6 x10E3/uL, the LYMPHOCYTE [2] was 83% and the “MEAN CORPUSCULAR HEMOGLOBIN” value [2] was 27.23 pg. For the same molecule, the “MEAN CORPUSCULAR HEMOGLOBIN CONCENTRATION” value [2] was 39.73 G/DL, the “MEAN CORPUSCULAR VOLUME” value [2] was 68.43 fL and the MONOCYTE [2] was 2.33%. The NEUTROPHIL [2] was 13%, the “NUCLEATED RED BLOOD CELLS” value [2] was 0 /100WBC and the “PLATELET COUNT” value [2] was 1111 x10E3/uL. The “ALANINE AMINOTRANSFERASE” value [2] was 40.67 u/L, the ALBUMIN [2] was 4.37 G/DL and the “ALKALINE PHOSPHATASE” value [2] was 464.33 u/L. The “ASPARTATE AMINOTRANSFERASE” value [2] was 82.33 u/L, the “BLOOD UREA NITROGEN” value [2] was 13.33 mg/dL and the “CARBON DIOXIDE” value [2] was 25.33 mmol/L. The CHLORIDE [2] was 100 MEQ/L, the CHOLESTEROL [2] was 69.33 mg/dL and the “CREATINE PHOSPHOKINASE” value [2] was 261.33 u/L. For the same molecule, the CREATININE [2] was 0.18 mg/dL, the GLUCOSE [2] was 184.67 mg/dL and the “LACTATE DEHYDROGENASE” value [2] was 180 u/L. The LIPASE [2] was 10.67 u/L, the PHOSPHORUS [2] was 11.87 mg/dL and the POTASSIUM [2] was 5.72 MEQ/L. The SODIUM [2] was 144 MEQ/L, the “TOTAL BILIRUBIN” value [2] was 0.23 mg/dL and the “TOTAL PROTEIN” value [2] was 5.97 G/DL. The “URIC ACID” value [2] was 1.6 mg/dL, the “ABSOLUTE BASOPHIL” value [3] was 0 CELLS/uL and the “ABSOLUTE EOSINOPHIL” value [3] was 37 CELLS/uL. For the same molecule, the “ABSOLUTE LYMPHOCYTE” value [3] was 10260.33 CELLS/uL, the “ABSOLUTE MONOCYTE” value [3] was 119.33 CELLS/uL and the “ABSOLUTE SEGMENTED NEUTROPHIL” value [3] was 1383.33 CELLS/uL. For the same molecule, the BASOPHIL [3] was 0%, the EOSINOPHIL [3] was 0.33% and the “ERYTHROCYTE COUNT” value [3] was 5.63 x10E6/uL. For the same molecule, the HEMATOCRIT [3] was 35.3%, the HEMOGLOBIN [3] was 14.17 G/DL and the “LEUKOCYTE COUNT” value [3] was 11.8 x10E3/uL. For the same molecule, the LYMPHOCYTE [3] was 87%, the “MEAN CORPUSCULAR HEMOGLOBIN” value [3] was 25.2 pg and the “MEAN CORPUSCULAR HEMOGLOBIN CONCENTRATION” value [3] was 40.17 G/DL. The “MEAN CORPUSCULAR VOLUME” value [3] was 62.77 fL, the MONOCYTE [3] was 1% and the NEUTROPHIL [3] was 11.67%. For the same molecule, the “NUCLEATED RED BLOOD CELLS” value [3] was 0 /100WBC, the “PLATELET COUNT” value [3] was 1110.33 x10E3/uL and the “ALANINE AMINOTRANSFERASE” value [3] was 46.33 u/L. The ALBUMIN [3] was 4.17 G/DL, the “ALKALINE PHOSPHATASE” value [3] was 346 u/L and the “ASPARTATE AMINOTRANSFERASE” value [3] was 85 u/L. For the same molecule, the “BLOOD UREA NITROGEN” value [3] was 17 mg/dL, the “CARBON DIOXIDE” value [3] was 32.33 mmol/L and the CHLORIDE [3] was 99.67 MEQ/L. The CHOLESTEROL [3] was 72.33 mg/dL, the “CREATINE PHOSPHOKINASE” value [3] was 387 u/L and the CREATININE [3] was 0.22 mg/dL. The GLUCOSE [3] was 142.67 mg/dL, the “LACTATE DEHYDROGENASE” value [3] was 421.33 u/L and the LIPASE [3] was 10.67 u/L. It also gave a PHOSPHORUS [3] of 12.3 mg/dL, a POTASSIUM [3] of 6.05 MEQ/L and an SODIUM [3] of 144.13 MEQ/L. The “TOTAL BILIRUBIN” value [3] was 0.17 mg/dL, the “TOTAL PROTEIN” value [3] was 6.1 G/DL and the “URIC ACID” value [3] was 1.27 mg/dL.
